# Source: US5616684A, “Cyclic peptides and use thereof” (priority 1991, dated 1997)
# Non-standard residues stand in square brackets, D forms with d. Residues, ends and D or L forms follow the SMILES beside them. 1Nal = N[C@@H](Cc1cccc2ccccc12)C(=O)O; d(aIle) = CC[C@H](C)[C@@H](N)C(=O)O; Hyp = O=C(O)[C@@H]1C[C@@H](O)CN1; Pip = O=C(O)[C@@H]1CCCCN1; Aze = O=C(O)[C@@H]1CCN1
# What was measured:
# [1] = target: T1, endothelin receptor B (ETB) (Bos taurus, UniProt P28088); test: Assay of Affinity for Receptor (2): Binding Activity on ETB Receptor *1; parameters: key: relative specific activity, Example 8 compound = 100; conditions: specific activity, binding activity of the compound of Example 8 taken as 100; bovine brain membrane fraction, 125I labeled endothelin-1, 25° C., 1 hour
# T1 construct: A membrane fraction prepared from the bovine brain; from tissue; host or cells: bovine brain membrane fraction
# T1 sequence (P28088 27-441): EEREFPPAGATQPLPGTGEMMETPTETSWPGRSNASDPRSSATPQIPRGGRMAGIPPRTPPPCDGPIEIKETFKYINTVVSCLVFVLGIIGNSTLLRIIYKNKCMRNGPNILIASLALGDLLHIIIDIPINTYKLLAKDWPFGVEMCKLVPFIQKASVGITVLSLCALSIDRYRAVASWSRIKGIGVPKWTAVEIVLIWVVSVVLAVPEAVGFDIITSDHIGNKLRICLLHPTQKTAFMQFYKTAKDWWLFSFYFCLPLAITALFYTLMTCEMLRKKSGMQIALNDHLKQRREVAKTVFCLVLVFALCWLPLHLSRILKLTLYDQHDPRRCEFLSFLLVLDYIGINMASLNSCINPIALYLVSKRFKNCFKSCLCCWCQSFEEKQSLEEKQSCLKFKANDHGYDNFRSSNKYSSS
# Procedure: Assay of Affinity for Receptor (2) . . . Binding Activity on ETB Receptor *1
# A membrane fraction prepared from the bovine brain was diluted to 0.15 mg/ml by using a buffer solution for assay, and 100 μl of the resulting suspension of the membrane fraction was poured into each assay tube to use for assay. To this suspension of the membrane fraction was added 2 μl of 5 nM ^125 I labeled endothelin-1 solution. Further, 3 μl of a test peptide solution was added thereto, followed by incubation at a temperature of 25° C. for 1 hour. Then, the resulting suspension was diluted with 900 μl of the buffer solution for assay cooled with ice, and thereafter separated into a supernatant and a precipitate by centrifugation at 12,000×g for 10 minutes. Cell membranes and an endothelin receptor B (ETB) embedded therein were contained in the precipitate, and radioactive iodine-labeled endothelin bound to the receptor was also recovered in the precipitate. Accordingly, the amount of radioactive iodine-labeled endothelin bound to the endothelin receptor B (ETB) was determined by measuring the amount of radioactive iodine contained in the precipitate with a gamma-ray counter. The numerical value of ETB shown in Table 1 is the value of specific activity, taking the binding activity of the compound of Example 8 on the receptor B as 100.
# [2] = system: ETB receptor (guinea pig kidney crude receptor membrane fraction); test: ETB Radio Receptor Assay *2; assay type: binding; conditions: relative activity (Example 8 given as 100), 125I-endothelin-1, 37° C., 90 minutes
# Procedure: ETB Radio Receptor Assay *2
# In the endothelin radio receptor assay, guinea pigs' kidneys were used. Guinea pigs (Std Hartrey, male 250 g, Japan SLC Ltd.) were made to have a cerebral concussion and sacrificed by bleeding from carotid arteries to pick up the kidneys and removed fat therefrom to prepare the kidneys. The obtained kidneys were sliced and homogenized by politron homogenizer in 20 ml of 50 mM Tris-HCl buffer [pH 7.4; 20 mM NaHCO3, 0.1 mM PMSF (Phenylmethylsulfonyl Fluoride), 1 mM EDTA (Ethylenediaminetetraacetic acid)] per one kidney. The homogenized kidney was applied to a centrifugation at 1,000×g for 15 minutes and the supernatant was further applied to a centrifugation for 20 minutes at 30,000×g. The resulting precipitate was twice washed with 50 mM Tris-HCl buffer (pH 7.4) containing 0.1 mM PMSF, 1 mM EDTA. The resultant was stored at -80 ° C. as a crude receptor membrane fraction and was used as the suspension in the following buffer when necessary.
# 740 Bq of ^125 I-endothelin-1 (81.4 TBq/mmol, Du Pont, USA) as a radio ligand, the crude membrane fraction (2.1 μg protein) and samples were added to the following buffer. The reaction was performed at 37° C., for 90 minutes in 0.2 ml of the buffer [50 mM Tris-HCl buffer (pH 7.4) containing 0.1 mM PMSF, 1 mM EDTA, 0.2% bovine serum albumin].
# The reaction was stopped by fast filtration on a glass filter (GF/B, Wattman, USA) by Cell Harvestor (290 PHD, Cambridge-Technology, Great Britain), and the filter was three times washed with 50 mM Tris-HCl buffer (pH 7.4). Radio activity remained on the filter was assayed by a gamma counter.
# [3] = target: T2, endothelin receptor A (ETA) (Sus scrofa, UniProt Q29010); test: Assay of Affinity for Receptor (1): Binding Activity on ETA Receptor; parameters: key to Binding Activity on ET Receptor (R. act.) ETA: relative binding activity; reference cyclic pentapeptide = 1.0; conditions: porcine heart membrane fraction; for Binding Activity on ET Receptor (R. act.) ETA: specific activity, binding activity of cyclo[-D-Glu-Ala-D-aIle-Leu-D-Trp-] taken as 1.0, 125I-labeled endothelin-1, 25° C., 1 hour
# T2 construct: A membrane fraction prepared from the porcine heart; from tissue; host or cells: porcine heart membrane fraction
# T2 sequence (Q29010 21-427): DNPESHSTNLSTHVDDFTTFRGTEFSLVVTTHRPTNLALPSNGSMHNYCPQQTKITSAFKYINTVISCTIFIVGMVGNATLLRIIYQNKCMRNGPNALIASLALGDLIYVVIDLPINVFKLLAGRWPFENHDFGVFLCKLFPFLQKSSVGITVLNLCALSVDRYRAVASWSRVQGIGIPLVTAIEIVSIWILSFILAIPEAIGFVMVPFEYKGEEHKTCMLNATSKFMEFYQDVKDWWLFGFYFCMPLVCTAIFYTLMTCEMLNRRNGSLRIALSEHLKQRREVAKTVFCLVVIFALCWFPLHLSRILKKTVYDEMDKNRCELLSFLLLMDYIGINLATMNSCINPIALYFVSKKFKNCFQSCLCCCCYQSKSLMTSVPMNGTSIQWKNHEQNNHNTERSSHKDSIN
# Procedure: Assay of Affinity for Receptor (1) . . . Binding Activity on ETA Receptor
# A membrane fraction prepared from the porcine heart was diluted to 0.15 mg/ml by using a buffer solution for assay, and 100 μl of the resulting suspension of the membrane fraction was poured into each assay tube to use for assay. To this suspension of the membrane fraction was added 2 μl of 5 nM ^125 I-labeled endothelin-1 solution. Further, 3 μl of a test peptide solution was added thereto, followed by incubation at a temperature of 25° C. for 1 hour. Then, the resulting suspension was diluted with 900 μl of the buffer solution for assay cooled with ice, and thereafter separated into a supernatant and a precipitate by centrifugation at 12,000×g for 10 minutes. Cell membranes and an endothelin receptor A (ETA) embedded therein were contained in the precipitate, and radioactive iodine-labeled endothelin combined with the receptor was also recovered in the precipitate. Accordingly, the amount of radioactive iodine-labeled endothelin combined with the endothelin receptor A (ETA) was determined by measuring the amount of radioactive iodine contained in the precipitate with a gamma-ray counter. The cyclic pentapeptide described in Japanese Patent Application No. 2-413828/1990, cyclo[-D-Glu-Ala-D-aIle-Leu-D-Trp-], was used as a control compound. The numerical value of ETA shown in Table 1 is the value of specific activity, taking the binding activity of this cyclic pentapeptide on the receptor A as 1.0. The binding activity (IC50) of this cyclic pentapeptide on the ETA receptor is 2×10^-6 M.
Binding Activity on ET Receptor (R. act.) ET8 *1 [1],Binding Activity on ET Receptor (R. act.) ET8 *2 [2],Binding Activity on ET Receptor (R. act.) ETA [3],IC50 ([3]; 125I-labeled endothelin-1),Structure (SMILES)
100,100,76,–,"CC(C)C[C@@H]1NC(=O)[C@@H](CC(C)C)NC(=O)[C@H](CC(=O)O)NC(=O)[C@H](Cc2c[nH]c3ccccc23)NC(=O)[C@@H](CC(=O)O)NC(=O)[C@@H](Cc2c[nH]c3ccccc23)NC1=O [Example 8, cyclo[-D-Asp-Trp-Asp-D-Leu-Leu-D-Trp-]] (cyclo(D[dL]L[dW][dD]W))"
140,67,56,–,"CC(C)C[C@@H]1NC(=O)[C@@H](CC(C)C)NC(=O)[C@H](CC(=O)O)NC(=O)[C@@H]2CCCN2C(=O)[C@@H](CC(=O)O)NC(=O)[C@@H](Cc2c[nH]c3ccccc23)NC1=O [Example 9, cyclo[-D-Asp-Pro-Asp-D-Leu-Leu-D-Trp-]] (cyclo(D[dL]L[dW][dD]P))"
160,120,70,–,"CC(C)C[C@@H]1NC(=O)[C@@H](CC(C)C)NC(=O)[C@H](CC(=O)O)NC(=O)[C@@H]2C[C@@H](O)CN2C(=O)[C@@H](CC(=O)O)NC(=O)[C@@H](Cc2c[nH]c3ccccc23)NC1=O [Example 14, cyclo[-D-Asp-Hyp-Asp-D-Leu-Leu-D-Trp-]] (cyclo(D[dL]L[dW][dD][Hyp]))"
14,34,10,–,"CC(C)C[C@@H]1NC(=O)[C@@H](CC(C)C)NC(=O)[C@H](CC(=O)O)NC(=O)[C@H](CC(=O)O)NC(=O)[C@@H](CC(=O)O)NC(=O)[C@@H](Cc2c[nH]c3ccccc23)NC1=O [Example 16, Cyclo[--D--Asp--Asp--Asp--D--Leu--Leu--D--Trp--]] (cyclo(DD[dL]L[dW][dD]))"
11,7.7,8.3,–,"CC(C)C[C@@H]1NC(=O)[C@@H](CC(C)C)NC(=O)[C@H](CC(=O)O)NC(=O)[C@H](Cc2cccc3ccccc23)NC(=O)[C@@H](CC(=O)O)NC(=O)[C@@H](Cc2c[nH]c3ccccc23)NC1=O [Example 23, Cyclo[--D--Asp--Nal(1)--Asp--D--Leu--Leu--D--Trp--]] (cyclo([1Nal]D[dL]L[dW][dD]))"
25,57,30,–,"CC(C)C[C@@H]1NC(=O)[C@@H](CC(C)C)NC(=O)[C@H](CC(=O)O)NC(=O)[C@@H]2CCN2C(=O)[C@@H](CC(=O)O)NC(=O)[C@@H](Cc2c[nH]c3ccccc23)NC1=O [Example 25, Cyclo[--D--Asp--Azc--Asp--D--Leu--Leu--D--Trp--]] (cyclo([Aze]D[dL]L[dW][dD]))"
38,73,25,–,"CC(C)C[C@@H]1NC(=O)[C@@H](CC(C)C)NC(=O)[C@H](CC(=O)O)NC(=O)[C@@H]2CCCCN2C(=O)[C@@H](CC(=O)O)NC(=O)[C@@H](Cc2c[nH]c3ccccc23)NC1=O [Example 26, Cyclo[--D--Asp--Pip--Asp--D--Leu--Leu--D--Trp--]] (cyclo(D[dL]L[dW][dD][Pip]))"
77,44,20,–,"CC(C)C[C@@H]1NC(=O)[C@@H](CC(C)C)NC(=O)[C@H](CCC(=O)O)NC(=O)[C@H](Cc2c[nH]c3ccccc23)NC(=O)[C@@H](CC(=O)O)NC(=O)[C@@H](Cc2c[nH]c3ccccc23)NC1=O [Example 34, Cyclo[--D--Asp--Trp--Glu--D--Leu--Leu--D--Trp--]] (cyclo(E[dL]L[dW][dD]W))"
52,24,9.1,–,"CC(C)C[C@@H]1NC(=O)[C@H](Cc2c[nH]c3ccccc23)NC(=O)[C@@H](CC(=O)O)NC(=O)[C@@H](Cc2c[nH]c3ccccc23)NC(=O)[C@H](CC(C)C)NC(=O)[C@@H](CC(C)C)NC1=O [Example 35, Cyclo[--D--Asp--Trp--Leu--D--Leu--Leu--D--Trp--]] (cyclo(L[dL]L[dW][dD]W))"
40,42,17,–,"CC(C)C[C@@H]1NC(=O)[C@@H](CC(C)C)NC(=O)[C@@H]2CCCN2C(=O)[C@H](Cc2c[nH]c3ccccc23)NC(=O)[C@@H](CC(=O)O)NC(=O)[C@@H](Cc2c[nH]c3ccccc23)NC1=O [Example 36, Cyclo[--D--Asp--Trp--Pro--D--Leu--Leu--D--Trp--]] (cyclo(L[dW][dD]WP[dL]))"
less than 1,–,1.0,2 µM,"CC[C@H](C)[C@H]1NC(=O)[C@H](C)NC(=O)[C@@H](CCC(=O)O)NC(=O)[C@@H](Cc2c[nH]c3ccccc23)NC(=O)[C@H](CC(C)C)NC1=O [cyclo[-D-Glu-Ala-D-aIle-Leu-D-Trp-], reference compound] (cyclo(A[d(aIle)]L[dW][dE]))"
